For series [1] the following is noted: hydrogel of similar PA; cited from earlier work. From the text: This is consistent with previous findings that increasing the proportion of valines in the β-sheet forming region of a PA results in an increase in gel stiffness. With PAs such as […]16, the β-sheet signal in the CD spectrum is red-shifted by a magnitude that inversely correlates with gel stiffness, and this has been attributed to the extent of twisting of the sheets, i.e., stiffer gels involve stronger peptide interactions with the least t ...

Series [2] can be described thus: Solubility in water and organic solvents.
Series [3] in a line: Gelation by inversion test. Conditions: for minimum gel concentration (MGC): inversion test.
A short description of series [4]: Rheology of the gels (strain sweep, frequency sweep, thixotropic test). It is filed as physicochemical. As to the method: […]-C8 therefore forms a very stiff but brittle gel.
An aliquot (550 μL) of this solution was then cast onto an Anton Paar MCR 302 rheometer (parallel plate geometry, 25 mm diameter, 1 mm gap) and left to gel over the course of 4 h. A solvent trap and Peltier hood was used to prevent any evaporation during gelation. Frequency sweeps were performed from 0.1–10 Hz, at a constant strain of 0.2% and three repeats performed on separate samples. Strain sweeps were performed from 0.1–100% at a constant frequency of 1 Hz.

Where only a bound is given, the exact number is not on record here.

With “EEEAAAVVV-C16 [previously reported hydrogel-forming peptide amphiphile studied by the Stupp and Nguyen groups]”, in series [1], the gel stiffness is < 10^4 Pa.
Consider N- Val3-His-Gly-Val3, for which the “solubility in acetonitrile/water mixtures” value in series [2] (mixtures of acetonitrile and water, VVVGHVVV-C8 with sonication) is “soluble”. Further, the solubility in water entry in series [2] (water, regardless of pH, temperature and sonication) was “peculiarly soluble in water”. Further, the “gelation of acetonitrile/water solutions” value in series [3] (acetonitrile/water mixtures) is given as “did not gelate”.
As for “N-Octanoic acid-Val3-His-Gly-Val3 [alkyl-chain modified peptide amphiphile organogelator]”, in series [2] (DMF), the “solubility in DMF” value is recorded as “dissolved”. Also, the solubility in acetonitrile entry in series [2] (acetonitrile) is given as “insoluble”. In series [2] (dichloromethane), the solubility in dichloromethane entry is recorded as “dissolved”. The “solubility in dimethyl sulfoxide” value in series [2] (dimethyl sulfoxide) is reported as “dissolved”. Moreover, the “solubility in ethyl acetate” value in series [2] (ethyl acetate, heating to reflux temperatures and sonicating for up to one hour) is listed as “did not dissolve”. For the same substance, the “minimum gel concentration (MGC)” value in series [3] (DMF) and in series [3] (acetone) was 0.06 wt.% each time. Moreover, the “gel formation in chloroform” value in series [3] (chloroform solution) is “did not form gels”. For the same substance, the “gel formation in dichloromethane” value in series [3] (dichloromethane solution) is reported as “did not form gels”. For the same substance, in series [3] (dimethyl sulfoxide solution), the “gel formation in dimethyl sulfoxide” value is recorded as “did not form gels”. Besides, the “gel formation in ethanol” value in series [3] (ethanol solution) is on record as “did not form gels”. Besides, in series [3] (isopropanol solution), the “gel formation in isopropanol” value is “did not form gels”. For the same substance, in series [3] (methanol solution), the “gel formation in methanol” value is listed as “did not form gels”. Further, the “gel formation in toluene” value in series [3] (toluene solution) is “did not form gels”. In series [4] (0.20 wt.% gel in 50% acetonitrile/water, frequency sweep 0.1-10 Hz at constant 0.2% strain, three repeats on separate samples), the “gel stiffness (approximated by G')” value was 1.5 × 10^5 Pa. The “cross-over point under oscillatory strain” value in series [4] (DMF organogel) is reported as “no cross-over point observed”. Besides, in series [4] (gel from 0.20 wt.% solution in 50% acetonitrile/water, strain sweep 0.1-100% at constant frequency of 1 Hz), the “strain at which mechanical properties deviate from the linear viscoelastic region” value was “less than 1 % strain”. The “cross-over point from gel to liquid (G' = G'')” value in series [4] (gel from 0.20 wt.% solution in 50% acetonitrile/water, strain sweep at constant frequency of 1 Hz) is 3 % strain.
